Reference: patent US9260444B2, “Crystalline form of 2-((1′-n-hexyloxy) ethyl)-2-divinyl-pyropheophorbide-a and method for preparing thereof” (Zhejiang Hisun Pharmaceutical Co., Ltd., priority 2012, dated 2016)

What was measured:
esophageal cancer = details: cited from earlier work
[1] = Long term stability experiment of the HPPH crystal; type: physicochemical; details: for Total impurity (%) / Content (based on dry weight, %): Temp 25° C. ± 2° C., Humidity 60% ± 5%; for Content (based on dry weight, %): standard content 98.0% to 102.0%
Procedure: (§1) According to the Guidelines to the stability studies of active pharmaceutical ingredient and pharmaceutical preparation (Chinese Pharmacopoeia, 2010 Edition, the Second Part, Appendix XIX C) (Appendix 199 to 200), selecting the HPPH crystal sample prepared in Embodiment 1 (Lot No. S111101), mimicking pack to selling, placing it in an incubator at the temperature of 25° C.±2° C., and the relative humidity of 60%±5%, after 6 months, taking the sample out, and examining it with the key examination items for stability, then comparing the examination results with the results obtained in the 0 month.

[2] = Accelerated stability experiment of the HPPH crystal; type: physicochemical; details: for Total impurity (%) / Content (based on dry weight, %): Temp 40° C. ± 2° C., Humidity 75% ± 5%; for Content (based on dry weight, %): standard content 98.0% to 102.0%
Procedure: as §1, with “placing” for “placing it”, “40°” for “25°”, “75%±5%,” for “60%±5%,”

Substance | Photodynamic therapeutic efficacy (esophageal cancer; 5 esophageal cancer patients, very low dose) | Photosensitive side effect of skin (esophageal cancer; clinical observation, esophageal cancer patients) | Change of key stability examination items versus 0 month ([1]; 25° C. ± 2° C., relative humidity 60% ± 5%, after 6 months) | Total impurity (%) ([1]; 0 month) | Content (based on dry weight, %) ([1]; 0 month) [%] | Total impurity (%) ([1]; 6 months) | Content (based on dry weight, %) ([1]; 6 months) [%] | Content in the 6 month sample versus 0 month ([2]; 40° C. ± 2° C., relative humidity 75% ± 5%, after 6 months) | Total impurity (%) ([2]; 0 month) | Content (based on dry weight, %) ([2]; 0 month) [%] | Total impurity (%) ([2]; 6 months) | Content (based on dry weight, %) ([2]; 6 months) [%]
2-((1′-n-hexyloxy)ethyl)-2-divinyl-pyropheophorbide-a [HPPH] | very good photodynamic therapeutic efficacy | no photosensitive side effect of skin has been observed | – | – | – | – | – | – | – | – | – | –
2-((1′-n-hexyloxy)ethyl)-2-divinyl-pyropheophorbide-a [HPPH crystal] | – | – | no examination item has shown significant change | 0.25 | 99.9 | 0.26 | 99.8 | slightly lower, yet still within the acceptable range | 0.25 | 99.9 | 0.27 | 98.9
